Experimental data taken from patent publication US8097615B2, “Neurofibrillary labels” (Wista Laboratories Ltd., priority 2001, dated 2012).
Values belong to the compound of their own block, whether it stands above or below them.

Legend:
[1] = PET after injection; cases with clinical and neuroradiological diagnosis of Alzheimer's disease; cited from earlier work
[2] = molecular target: T1, synthetic beta-amyloid fibrils (Homo sapiens, UniProt P05067); conditions: in vitro; cited from earlier work
T1 construct: host or cells: synthetic peptide

PHFs = assay: Morphological studies of PHFs in the presence of phenothiazines (electron microscopy)
tangle fragments = assay: Competitive binding assay: displacement of primulin fluorescence from tangle fragments (ifI); set-up: species or system human; conditions: fluorescence end point
Procedure: IfI material was homogenised in a 0.2 ml glass homogeniser in PBS. To the suspension, test compounds were added to final concentrations ranging from 0.1% to 0.00001%. […] The suspensions were transferred to a glass slide, and examined by fluorescence microscopy across a range of fluorescence filter blocks, covering excitation and emission wavelengths between 380 nm and 570 nm. The end point sought in these observations was displacement of typical primulin fluorescence from tangle fragments.

tau-tau binding [3] = assay: Solid-phase tau-tau binding assay, tau Preparation 1 (WO96/30766); assay type: biochemical, human
Source text: This point was further examined by studying the potency of typical aggregated tau ligands as tau-aggregation inhibitors. It has been shown previously that tau aggregation inhibitors (e.g. diaminophenothiazines) can be identified on the basis of inhibition of tau-tau binding in a solid-phase assay (WO 96/30766). […] Thus, although these compounds are potent ligands for tau within the PHF-core, they are at most weak inhibitors at the site required for inhibition of tau-tau binding.
Large-scale purification (1 liter bacterial culture) of tau fragments was carried out as described by Goedert and Jakes (1990, EMBO J., 9, 4225-4230), with minor modifications. Cells were disrupted by rapid freezing of the cell pellet in liquid nitrogen. The pellets were then suspended in buffer containing 50 mM PIPES, 1 mM dithiothreitol (DTT) (pH 6.8). The thermostable proteins in the supernatant were dialysed against PIPES/DTT, then applied to a column containing phosphocellulose equilibrated in the same buffer. […] Fractions were analysed by SDS-PAGE and both Coomassie staining and immunoblotting. […] Protein concentrations were measured by the Lowry method (Harrington C R (1990), “Lowry protein assay containing sodium dodecyl sulphate in microtitre plates for protein determinations on fractions from brain tissue”, Analytical Biochemistry 186: 285-287).

tau-tau binding [4] = molecular target: T2, tau-tau binding (Homo sapiens, UniProt P10636); assay: Solid-phase tau-tau binding assay (dGA solid phase, dGAE liquid phase), tau Preparation 2; assay type: biochemical; conditions: Preparation 2
T2 construct: a truncated tau protein corresponding to the core fragment and terminating at Ala390-dGA; dGAE which terminates at Glu-391; made in house; host or cells: E. coli BL21 (DE3), pRK172; DE52 flow-through, P11 phosphocellulose, PEG concentration, no heat step (Preparation 2)
Procedure: Preparation 2 differs from Preparation 1 above in the following respects: (1) The concentration of cells at the sonication stage is increased by 5-fold. (2) A batchwise adsorption of non-tau proteins to DE52 is included. (3) The proteins are not subjected to heat treatment. (4) The final step involves concentration using polyethylene glycol.
Escherichia coli is grown in 2×TY medium (Oxoid) supplemented with ampicillin (50 micrograms per ml) to late-logarithmic phase. Cells from 5 liters of culture are harvested by centrifugation and the cell pellets frozen rapidly over liquid nitrogen. The pellets are taken up with 50 mM PIPES (pH 6.8) containing 1 mM EDTA, 1 mM dithiothreitol and 1 mM phenylmethylsulphonylfluoride (PMSF) and bacteria lysed by sonication (2×3 min) at 4 C. The mixture is centrifuged at 10,000 rpm for 20 min. The supernatant is rotated with 1 gram of Whatman DE52 for 3 hr at 4 C. The mixture is separated on a column and the flow-through material that fails to bind to DE52 is incubated for 3 hr at 4 C, with rotation, with 0.4 g of Whatman P11 (freshly regenerated according to manufacturer's recommendations). The column is washed with column buffer (50 mM PIPES, pH 6.8 containing 1 mM EGTA, 5 mM EDTA, 0.2 mM MgCl2, 5 mM β-mercaptoethanol and 1 mM PMSF). Tau protein is eluted stepwise with a 0.1 to 1 M gradient of KCl in column buffer. Fractions containing tau (determined by immunoassay) are pooled and dialysed against 80 mM PIPES (pH6.8) containing 1 mM EGTA, 1 mM MgCl2 and 5 mM β-mercatoethanol, using dialysis tubing with a molecular weight cut-off of 1,000. The dialysate is concentrated by applying polyethylene glycol 8000 to the outside of the sac for 2-3 hr. The final concentration of tau ranged from 3 to 10 mg per ml.
When the proteins dGA and dGAE were prepared as indicated above (“Preparation 2”), the properties of the tau-tau binding assay were altered relative to the properties obtained using the preparative method described in WO96/30766 (“Preparation 1”).
The assay is performed using 96 well PVC plates (Falcon Cat. No. 353912 are used), and the following steps:
1. 50 μl dGA (˜10 μg/ml) in carbonate buffer, incubate 1 h at 37° C.
(Carbonate buffer: 50 mM carbonate bicarbonate, pH 9.6 (Na2CO3 1.59 g/l, NaHCO3 2.93 g/l))
2. Wash plate in 0.05% Tween-20.
3. 200 μl PBS+2% Marvel, incubate 1 h at 37° C.
4. Rinse plate 2× in deionised water, then wash in 0.05% Tween-20.
5. 50 μl dGAE (˜10 μg/ml) plus drug in PBS+1% fish skin gelatin+0.05% Tween-20, incubate 1 h at 37° C.
6. Wash plate in 0.05% Tween-20.
7. 50 μl antibody 423 (1:10 dilution in PBS+2% Marvel), incubate 1 h at 37° C.
8. Rinse plate 2× in deionised water, then wash in 0.05% Tween-20.
9. 50 μl HRP-anti-mouse (1:1000 dilution in PBS+0.05% Tween-20), incubate 1 h at 37° C.
10. Wash plate in 0.05% Tween-20, then rinse 1× with deionised water.
11. 50 μl substrate solution, read immediately initial rate over 2 min in plate reader at OD650.
(Substrate solution: 50 mM sodium acetate, pH 5.0+TMB (1 ml/100 ml of a 10 mg/ml solution in DMSO)+H2O2 (10 μl/100 ml)).

tau-tau binding [5] = molecular target: T2, tau-tau binding; assay: Relief of DMMB inhibition of tau-tau binding by ligands (Preparation 2); assay type: biochemical
Source text: 2. using tau proteins prepared in this manner for testing putative ligands in the tau-tau binding assay provided in WO96/30766 to identify substances which have minimal or entirely absent activity as tau-aggregation inhibitors or enhance tau-tau binding at high concentrations; 3. testing putative ligands in the presence of an exemplary potent tau-aggregation inhibitor, such as DMMB, at an inhibitory concentration; 4. putative ligands can be identified by the property that they lack capacity to block tau-tau binding through the repeat domain, but block the inhibitory activity of a potent tau-aggregation inhibitor.
(ii) contacting (a) a tau protein or a derivative thereof containing the tau core fragment bound to a solid phase so as to expose a high affinity tau capture site (e.g. a truncated tau protein corresponding to the core fragment and terminating at Ala390-dGA), with (b) a liquid phase tau protein or derivative thereof capable of binding to the solid phase tau protein or derivative (e.g. dGAE which terminates at Glu-391), and (c) said selected first agent and (d) a second agent known to be tau-tau binding inhibitor, (iii) selecting a first agent which fully or partially relieves the inhibition of binding of the liquid phase tau protein or derivative of (b) to the solid phase tau protein or derivative of (a) by the inhibitor (d).
Similar results are shown for 15 μM DMMB in the presence of increasing concentrations of Primulin (c) and Thiazin Red (d).
For each graph, Tau-Tau binding is shown in the presence of constant concentrations of DMMB co-incubated with Primulin at 0×, 1×, 5×, 10×, 100× the DMMB concentrations shown.
This implies that the Tau-aggregation enhancement effect of these ligands is proportional to the fraction of ligand-binding sites occupied, presumably within the Tau aggregates introduced into the aqueous-phase of the assay. The mean Bmax for both ligands is ˜1.6. That is, the maximum ligand effect is to produce 1.6-fold the Tau-Tau binding signal seen in the absence of any drug. The mean Kd for this effect is ˜15×. That is, for any given concentration of DMMB>4 μM, 50% of maximal enhancement of Tau-Tau binding can be seen when the ligand molar excess is 15-fold relative to the concentration of DMMB.

T2 sequence (P10636 614-708 limits assumed): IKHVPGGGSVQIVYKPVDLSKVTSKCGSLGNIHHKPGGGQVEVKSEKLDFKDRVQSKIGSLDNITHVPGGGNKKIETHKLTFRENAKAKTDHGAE
T1 sequence (P05067 672-711 limits assumed): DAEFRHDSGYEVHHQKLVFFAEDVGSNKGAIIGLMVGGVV

SMILES: CC(=C(C#N)C#N)c1ccc2cc(N(C)CC[18F])ccc2c1 [FDDNP, 2-(1-{6-[(2-[^18F]fluoroethyl)(methyl)amino]-2-naphthyl}ethylidene)malononitrile]
relative retention time (RRT) [1]: increased relative retention time | binding to synthetic beta-amyloid fibrils [2]: bind with high affinity

SMILES: CN(C)c1ccc2nc3ccc(=[N+](C)C)cc-3sc2c1 [methylene blue]
disruption of PHF structure (PHFs): disruption of PHF structure in the presence of sufficiently high concentrations

inhibition of tau-tau binding (tau-tau binding [3]): weak inhibitors of tau-tau binding | inhibition of tau-tau binding (tau-tau binding [4]): no inhibitory activity | BMax of tau-tau binding (tau-tau binding [5]; 5 μM DMMB, Binding=(BMax×[ligand])/(Kd+[ligand])): 1.64 | reversal of inhibitory effect of DMMB on tau-tau binding (tau-tau binding [5]; co-incubation with increasing molar excess of ligand): completely reversed
SMILES: Cc1ccc2sc(-c3ccc(N=Nc4cc(S(=O)(=O)[O-])c5ccccc5c4O)cc3)nc2c1S(=O)(=O)[O-].[Na+].[Na+] [thiazin red]
competition with / displacement of other ligands at tangles (tangle fragments): compete with primulin at equivalent concentrations
